In article PMC9296036, “A peptide interfering with the dimerization of oncogenic KITENIN protein and its stability suppresses colorectal tumour progression” (Clinical and Translational Medicine, 2022):
Ends that are not written are not given here.

Legend:
[1] = target: T1, KITENIN (Homo sapiens, UniProt Q8TAA9); test: Endogenous KITENIN protein level in HCT116 cells (immunoblot); assay type: cell-based; details: non-transfected HCT116 cells, KDIP 1 μM, 12 h
T1 construct: decreased endogenous KITENIN protein levels in non‐transfected HCT116 and CT‐26 cells; endogenous in cells; host or cells: HCT116
T1 sequence (Q8TAA9 1-524): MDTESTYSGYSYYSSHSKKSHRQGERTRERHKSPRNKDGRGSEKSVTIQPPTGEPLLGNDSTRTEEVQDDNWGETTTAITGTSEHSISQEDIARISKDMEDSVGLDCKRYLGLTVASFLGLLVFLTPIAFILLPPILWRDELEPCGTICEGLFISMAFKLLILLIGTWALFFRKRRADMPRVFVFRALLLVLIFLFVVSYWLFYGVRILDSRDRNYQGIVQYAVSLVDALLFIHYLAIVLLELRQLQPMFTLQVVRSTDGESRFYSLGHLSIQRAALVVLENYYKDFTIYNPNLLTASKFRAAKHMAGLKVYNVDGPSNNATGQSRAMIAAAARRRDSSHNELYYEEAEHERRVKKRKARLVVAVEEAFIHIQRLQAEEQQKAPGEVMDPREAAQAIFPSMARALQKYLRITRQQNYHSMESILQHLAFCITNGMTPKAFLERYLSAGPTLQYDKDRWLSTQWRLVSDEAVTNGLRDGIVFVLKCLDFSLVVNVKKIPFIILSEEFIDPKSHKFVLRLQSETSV
Excerpt: (§1) Antibodies against the following proteins were obtained from the indicated suppliers: Na^+/K^+ ATPase, GFP and tubulin (Santa Cruz Biotechnology); c‐Jun, p‐c‐Jun, ERK, p‐ERK, c‐MET, p‐c‐MET and GST (Cell Signaling Technology); V5, Myc (MBL); HA and β‐actin (Sigma); KITENIN (Atlas); His and RACK1, LC3, p62, Myo10, and eukaryotic elongation factor 2 (eEF2) (Abcam). They were used with appropriate secondary antibodies (Thermo). For transient transfection analyses, Caco2, HCT116 and 293T cells were transfected with various plasmids and harvested for immunoblot analysis 48 h after transfection. For most assays using stable cell lines, mixed polyclonal cells were used to exclude clonal variation. […]
(§2) FIGURE 2 KAI1 C‐terminal interacting tetraspanin (KITENIN) dimerization‐interfering peptide (KDIP) suppresses KITENIN‐induced enhanced cell invasion through the inhibition of the homodimerization of KITENIN. […] After 48 h of treatment, KITENIN transcripts in cells were analysed by the 2^−ΔΔ ^CT method using Q‐PCR. […] Caco2 cells were co‐transfected with KITENIN‐V5/Myc and treated with or without KDIP or scrambled peptide (scr) and were immunoprecipitated with anti‐V5 antibody and detected by indicated antibodies. Numerals indicated a quantification of the MYC bands normalized to the corresponding V5 bands (left panel). […] Numerals indicated a quantification of the bands observed (left panel). […]

[2] = target: T2, KITENIN (Mus musculus, UniProt Q80Z96); test: Endogenous KITENIN protein level in CT-26 cells (immunoblot); assay type: cell-based; details: non-transfected CT-26 cells, KDIP 1 μM, 12 h
T2 construct: decreased endogenous KITENIN protein levels in non‐transfected HCT116 and CT‐26 cells; endogenous in cells; host or cells: CT-26
T2 sequence (Q80Z96 1-526): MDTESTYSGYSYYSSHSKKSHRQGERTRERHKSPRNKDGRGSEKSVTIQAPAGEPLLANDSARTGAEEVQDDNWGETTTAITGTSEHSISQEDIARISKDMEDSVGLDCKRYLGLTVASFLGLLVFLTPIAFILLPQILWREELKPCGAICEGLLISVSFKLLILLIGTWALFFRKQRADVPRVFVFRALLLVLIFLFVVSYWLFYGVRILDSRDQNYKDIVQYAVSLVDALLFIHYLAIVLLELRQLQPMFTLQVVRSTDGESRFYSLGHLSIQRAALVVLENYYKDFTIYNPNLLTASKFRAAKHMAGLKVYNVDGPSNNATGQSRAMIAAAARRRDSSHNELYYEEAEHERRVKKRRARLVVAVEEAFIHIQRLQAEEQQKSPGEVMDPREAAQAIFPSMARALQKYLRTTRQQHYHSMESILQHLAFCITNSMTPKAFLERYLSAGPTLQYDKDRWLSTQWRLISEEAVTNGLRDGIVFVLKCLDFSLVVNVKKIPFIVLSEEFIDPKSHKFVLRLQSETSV
Excerpt: as §1, §2

- endogenous KITENIN protein level (in words) [1]: decreased
- endogenous KITENIN protein level (in words) [2]: decreased
Sequence: YARVRRRGPRRWRLVSDEAV [KDIP]
